Structures are written as SMILES. Counter-ions that a name gives are not always drawn.

The source of these data is patent US8871753B2, “Macrocyclic compounds and their use as kinase inhibitors” (Incyte Corporation, priority 2008, dated 2014).

What all share (format): biochemical
Experiment [1] deals with T1, human JAK3 (a.a. 781-1124) (Homo sapiens, UniProt P52333).
T1 construct: JAK3 (a.a. 781-1124); His tag (N); made in house; host or cells: insect cells (baculovirus)
Put plainly: In vitro JAK kinase assay (HTRF, phosphorylation of a biotinylated peptide), JAK3. Conditions: Table B1. A digest of the protocol:
(§1)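 Phosphorylation of a biotinylated peptide by the JAK kinase domain, detected by HTRF with Eu-Py20 and SA-APC. ATP was 90 μM for JAK1, 30 μM for JAK2 and 3 μM for JAK3. Reactions ran 1 h at room temperature and were stopped with EDTA, followed by 40 min antibody binding.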

The target of a further experiment is TYK2 (Homo sapiens, UniProt P29597). Put plainly: TYK2 kinase inhibition (Table A1). Conditions: Table B1.
Sequence of TYK2 (P29597 whole entry): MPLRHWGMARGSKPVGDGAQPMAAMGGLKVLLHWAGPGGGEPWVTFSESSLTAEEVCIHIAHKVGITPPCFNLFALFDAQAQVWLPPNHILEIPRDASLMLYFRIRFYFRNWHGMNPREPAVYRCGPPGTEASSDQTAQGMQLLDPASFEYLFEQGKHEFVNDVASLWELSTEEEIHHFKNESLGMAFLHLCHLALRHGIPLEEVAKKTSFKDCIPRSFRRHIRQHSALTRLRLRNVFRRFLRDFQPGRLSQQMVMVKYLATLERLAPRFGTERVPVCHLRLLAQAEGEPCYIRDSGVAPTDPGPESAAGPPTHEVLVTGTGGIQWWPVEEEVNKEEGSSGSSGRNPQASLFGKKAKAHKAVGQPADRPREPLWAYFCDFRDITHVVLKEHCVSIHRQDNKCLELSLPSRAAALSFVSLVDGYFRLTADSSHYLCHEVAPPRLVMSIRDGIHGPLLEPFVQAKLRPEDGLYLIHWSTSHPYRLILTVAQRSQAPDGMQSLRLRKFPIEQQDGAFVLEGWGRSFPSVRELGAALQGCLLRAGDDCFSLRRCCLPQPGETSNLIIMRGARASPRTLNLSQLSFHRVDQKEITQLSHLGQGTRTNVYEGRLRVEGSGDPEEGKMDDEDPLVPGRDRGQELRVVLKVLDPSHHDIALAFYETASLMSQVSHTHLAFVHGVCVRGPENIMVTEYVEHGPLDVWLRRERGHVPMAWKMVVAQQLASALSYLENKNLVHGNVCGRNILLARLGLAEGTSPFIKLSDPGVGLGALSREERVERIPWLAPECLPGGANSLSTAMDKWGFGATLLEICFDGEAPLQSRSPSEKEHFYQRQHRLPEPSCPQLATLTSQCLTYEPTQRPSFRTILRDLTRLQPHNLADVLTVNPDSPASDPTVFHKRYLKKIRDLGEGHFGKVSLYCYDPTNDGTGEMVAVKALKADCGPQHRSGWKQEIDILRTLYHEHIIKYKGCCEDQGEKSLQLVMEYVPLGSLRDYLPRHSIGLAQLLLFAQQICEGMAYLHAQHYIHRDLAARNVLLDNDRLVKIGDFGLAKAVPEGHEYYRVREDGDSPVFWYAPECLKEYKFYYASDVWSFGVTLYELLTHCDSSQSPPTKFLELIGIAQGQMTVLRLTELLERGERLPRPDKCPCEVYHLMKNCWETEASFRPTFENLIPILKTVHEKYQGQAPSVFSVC
Experiment [2] has as its target T2, human JAK1 (a.a. 837-1142) (Homo sapiens, UniProt P23458).
T2 construct: human JAK1 (a.a. 837-1142); His tag (N); made in house; host or cells: insect cells (baculovirus)
As to the kind of experiment: In vitro JAK kinase assay (HTRF, phosphorylation of a biotinylated peptide), JAK1. Conditions: Table B1; read-out: JAK1 IC50. A digest of the protocol:
as §1
For orientation: Time-resolved FRET reads energy transfer from a long-lived donor to a nearby acceptor.

For experiment [3], the target named is T3, Recombinant Human Anaplastic Lymphoma Kinase (Homo sapiens, UniProt Q9UM73).
T3 construct: purchased Invitrogen, Carlsbad, Calif
T3 sequence (Q9UM73 19-1620): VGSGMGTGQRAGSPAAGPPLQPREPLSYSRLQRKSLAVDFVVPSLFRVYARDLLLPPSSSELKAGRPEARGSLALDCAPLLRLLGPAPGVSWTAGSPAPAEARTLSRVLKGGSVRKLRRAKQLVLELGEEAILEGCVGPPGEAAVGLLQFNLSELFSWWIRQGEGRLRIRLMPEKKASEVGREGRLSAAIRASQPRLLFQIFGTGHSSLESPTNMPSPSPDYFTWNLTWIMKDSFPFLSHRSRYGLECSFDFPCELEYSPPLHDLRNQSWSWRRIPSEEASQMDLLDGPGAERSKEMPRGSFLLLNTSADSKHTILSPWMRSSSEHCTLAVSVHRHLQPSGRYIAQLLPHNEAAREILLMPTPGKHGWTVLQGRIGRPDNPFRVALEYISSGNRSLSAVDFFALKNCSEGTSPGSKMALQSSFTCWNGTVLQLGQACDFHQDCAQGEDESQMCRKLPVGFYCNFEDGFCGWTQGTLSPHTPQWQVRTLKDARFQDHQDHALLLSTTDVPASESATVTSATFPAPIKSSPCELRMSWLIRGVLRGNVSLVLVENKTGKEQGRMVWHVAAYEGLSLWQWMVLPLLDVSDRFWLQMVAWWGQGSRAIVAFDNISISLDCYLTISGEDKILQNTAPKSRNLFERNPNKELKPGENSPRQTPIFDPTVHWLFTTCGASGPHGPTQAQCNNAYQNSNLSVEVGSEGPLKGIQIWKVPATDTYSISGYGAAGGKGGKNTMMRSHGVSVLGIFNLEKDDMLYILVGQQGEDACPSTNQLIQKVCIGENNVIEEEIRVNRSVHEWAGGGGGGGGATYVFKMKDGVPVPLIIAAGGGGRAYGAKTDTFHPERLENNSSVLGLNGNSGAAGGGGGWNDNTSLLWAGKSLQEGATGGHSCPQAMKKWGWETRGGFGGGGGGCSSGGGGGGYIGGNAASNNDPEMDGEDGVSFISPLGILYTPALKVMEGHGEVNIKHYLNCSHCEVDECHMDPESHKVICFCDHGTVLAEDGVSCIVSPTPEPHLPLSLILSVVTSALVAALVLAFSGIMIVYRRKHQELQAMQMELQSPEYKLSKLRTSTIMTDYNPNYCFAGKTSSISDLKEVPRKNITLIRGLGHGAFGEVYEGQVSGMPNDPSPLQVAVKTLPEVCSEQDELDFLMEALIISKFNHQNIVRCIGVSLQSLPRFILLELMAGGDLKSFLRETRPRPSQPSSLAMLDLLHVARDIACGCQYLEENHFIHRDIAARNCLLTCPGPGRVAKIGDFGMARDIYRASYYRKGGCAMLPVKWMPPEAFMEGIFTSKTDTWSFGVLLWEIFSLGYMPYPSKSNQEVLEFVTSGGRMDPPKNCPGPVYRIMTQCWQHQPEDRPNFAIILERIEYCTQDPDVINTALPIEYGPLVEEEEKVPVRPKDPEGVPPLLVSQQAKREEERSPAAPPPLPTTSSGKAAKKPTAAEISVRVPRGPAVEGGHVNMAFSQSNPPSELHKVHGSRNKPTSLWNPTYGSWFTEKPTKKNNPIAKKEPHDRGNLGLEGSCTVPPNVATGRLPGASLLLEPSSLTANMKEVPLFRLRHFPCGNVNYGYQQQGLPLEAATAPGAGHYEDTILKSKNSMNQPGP
As to the kind of experiment: ALK HTRF kinase assay. Conditions: for IC50: Table B1, cells without percent sign; for ALK % of inhibition at a concentration of 500 nM or 1 mM: compound at a concentration of 500 nM or 1 mM (not specified), cells shown as percentage. The gist of the method:
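TR-FRET read-out (Eu anti-pTyr antibody + streptavidin-APC) of biotin-peptide phosphorylation by recombinant human enzyme; IC50 by sigmoidal fit with top/bottom baselines and Hill slope.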

The target of experiment [4] is T4, human JAK2 (a.a. 828-1132) (Homo sapiens, UniProt O60674).
T4 construct: JAK2 (a.a. 828-1132); His tag (N); made in house; host or cells: insect cells (baculovirus)
T4 sequence (O60674 828-1132): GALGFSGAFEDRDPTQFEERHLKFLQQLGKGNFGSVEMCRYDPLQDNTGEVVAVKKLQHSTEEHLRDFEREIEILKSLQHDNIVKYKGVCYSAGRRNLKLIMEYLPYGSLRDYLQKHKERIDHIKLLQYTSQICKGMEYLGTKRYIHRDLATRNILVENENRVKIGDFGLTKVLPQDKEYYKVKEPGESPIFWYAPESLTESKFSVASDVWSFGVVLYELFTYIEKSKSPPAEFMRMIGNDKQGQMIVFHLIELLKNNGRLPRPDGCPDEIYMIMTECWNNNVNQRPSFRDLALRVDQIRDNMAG
Put plainly: In vitro JAK kinase assay (HTRF, phosphorylation of a biotinylated peptide), JAK2. Conditions: Table B1. A digest of the protocol:
as §1

T1 sequence (P52333 781-1124): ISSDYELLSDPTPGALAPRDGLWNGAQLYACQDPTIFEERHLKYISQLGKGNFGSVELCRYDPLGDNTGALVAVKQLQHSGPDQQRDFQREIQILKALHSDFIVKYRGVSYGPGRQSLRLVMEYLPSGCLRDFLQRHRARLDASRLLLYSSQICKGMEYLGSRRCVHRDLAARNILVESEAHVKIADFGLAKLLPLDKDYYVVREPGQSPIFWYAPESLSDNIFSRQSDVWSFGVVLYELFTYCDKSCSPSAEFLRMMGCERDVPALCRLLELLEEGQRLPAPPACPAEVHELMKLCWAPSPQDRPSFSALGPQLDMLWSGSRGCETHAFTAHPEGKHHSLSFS
T2 sequence (P23458 849-1154): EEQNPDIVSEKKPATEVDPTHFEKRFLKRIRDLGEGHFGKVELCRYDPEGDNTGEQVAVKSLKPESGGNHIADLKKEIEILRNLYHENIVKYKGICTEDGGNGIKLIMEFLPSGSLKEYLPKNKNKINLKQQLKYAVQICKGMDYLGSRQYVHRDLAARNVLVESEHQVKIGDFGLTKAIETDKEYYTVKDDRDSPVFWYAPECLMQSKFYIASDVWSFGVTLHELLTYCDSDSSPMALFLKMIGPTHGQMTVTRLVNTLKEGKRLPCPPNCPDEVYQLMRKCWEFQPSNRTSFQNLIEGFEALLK

As a reminder, the IC50 is the point on the concentration scale where inhibition reaches its midpoint. Turning to `O=C(Nc1ccc(N2CCOCC2)cc1)c1cc2cc(c1)Nc1nc(ncc1Cl)Nc1cccc(c1)CC2` [Example B9, 6-Chloro-N-(4-morpholin-4-ylphenyl)-2,4,8,22-tetraazatetracyclo[14.3.1.1(3,7).1(9,13)]docosa-1(20),3(22),4,6,9(21),10,12,16,18-nonaene-11-carboxamide trifluoroacetate], the IC50 in experiment [1] was above 1000 nM; against TYK2 it was 683 nM; in experiment [2], 263 nM; in experiment [3], above 1000 nM; in experiment [4] it was 130 nM.

Turning to `O=C(Nc1ccc(CCO)cc1)c1cc2cc(c1)Nc1nc(ncc1Cl)Nc1cccc(c1)CC2` [Example B10, 6-Chloro-N-[4-(2-hydroxyethyl)phenyl]-2,4,8,22-tetraazatetracyclo[14.3.1.1(3,7).1(9,13)]docosa-1(20),3(22),4,6,9(21),10,12,16,18-nonaene-11-carboxamide trifluoroacetate], the IC50 was 51 nM in experiment [1]; 172 nM on TYK2; 68 nM in experiment [2]; 1960 nM in experiment [3]; 12 nM in experiment [4].

As for `O=C(NCc1ccncc1)c1cc2cc(c1)Nc1nc(ncc1Cl)Nc1cccc(c1)CC2` [Example B11, 6-Chloro-N-(pyridin-4-ylmethyl)-2,4,8,22-tetraazatetracyclo[14.3.1.1(3,7).1(9,13)]docosa-1(20),3(22),4,6,9(21),10,12,16,18-nonaene-11-carboxamide bis(trifluoroacetate)], the IC50 amounted to 144 nM in experiment [1]; 275 nM on TYK2; 97 nM in experiment [2]; 2370 nM in experiment [3]; 92 nM in experiment [4].

As for `O=C(c1cc2cc(c1)Nc1nc(ncc1Cl)Nc1cccc(c1)CC2)N1CCCC(O)C1` (stereo not shown) [Example B12, 1-{[6-Chloro-2,4,8,22-tetraazatetracyclo[14.3.1.1(3,7).1(9,13)]docosa-1(20), 3(22),4,6,9(21),10,12,16,18-nonaen-11-yl]carbonyl}piperidin-3-ol trifluoroacetate], the IC50 was 450 nM in experiment [1]; 312 nM against TYK2; 235 nM in experiment [2]; above 10000 nM in experiment [3]; 112 nM in experiment [4].

On to `O=C(Nc1cccc(Cl)c1)c1cc2cc(c1)Nc1nc(ncc1Cl)Nc1cccc(c1)CC2` [Example B13, 6-Chloro-N-(3-chlorophenyl)-2,4,8,22-tetraazatetracyclo[14.3.1.1(3,7).1(9,13)]docosa-1(20),3(22),4,6,9(21),10,12,16,18-nonaene-11-carboxamide trifluoroacetate], for which the IC50 in experiment [1] was 682 nM; against TYK2, above 1000 nM; in experiment [2] it was 900 nM; in experiment [3], above 1000 nM; in experiment [4] it was 171 nM.

Regarding `O=C(Nc1ccccc1Cl)c1cc2cc(c1)Nc1nc(ncc1Cl)Nc1cccc(c1)CC2` [Example B14, 6-Chloro-N-(2-chlorophenyl)-2,4,8,22-tetraazatetracyclo[14.3.1.1(3,7).1(9,13)]docosa-1(20),3(22),4,6,9(21),10,12,16,18-nonaene-11-carboxamide trifluoroacetate], the IC50 was 314 nM in experiment [1]; above 1000 nM on TYK2; 232 nM in experiment [2]; above 1000 nM in experiment [3]; 119 nM in experiment [4].

Regarding `O=C(Nc1ccc(Cl)cc1)c1cc2cc(c1)Nc1nc(ncc1Cl)Nc1cccc(c1)CC2` [Example B15, 6-Chloro-N-(4-chlorophenyl)-2,4,8,22-tetraazatetracyclo[14.3.1.1(3,7).1(9,13)]docosa-1(20),3(22),4,6,9(21),10,12,16,18-nonaene-11-carboxamide trifluoroacetate], the IC50 in experiment [1] was 365 nM; on TYK2, above 1000 nM; in experiment [2], 160 nM; in experiment [3], above 1000 nM; in experiment [4], 111 nM.

`CC(C)(C)NS(=O)(=O)c1cc2cc(c1)Nc1nc(ncc1Cl)Nc1cccc(c1)CC2` [Example B16, N-(tert-Butyl)-6-chloro-2,4,8,22-tetraazatetracyclo[14.3.1.1(3,7).1(9,13)]docosa-1(20),3(22),4,6,9(21),10,12,16,18-nonaene-11-sulfonamide trifluoroacetate]: the IC50 is 182 nM in experiment [1]; 206 nM on TYK2; 52 nM in experiment [2]; above 10000 nM in experiment [3]; 7.5 nM in experiment [4].

In the case of `CC(C)(C)NS(=O)(=O)c1cc2cc(c1)Nc1nc(ncc1Br)Nc1cccc(c1)CC2` [Example B17, 6-Bromo-N-(tert-butyl)-2,4,8,22-tetraazatetracyclo[14.3.1.1(3,7).1(9,13)]docosa-1(20),3(22),4,6,9(21),10,12,16,18-nonaene-11-sulfonamide trifluoroacetate], the IC50 in experiment [1] was 126 nM; on TYK2, 152 nM; in experiment [2], 71 nM; in experiment [3], above 10000 nM; in experiment [4], 11 nM.

As to `NS(=O)(=O)c1cc2cc(c1)Nc1nc(ncc1Br)Nc1cccc(c1)CC2` [Example B18, 6-Bromo-2,4,8,22-tetraazatetracyclo[14.3.1.1(3,7).1(9,13)]docosa-1(20),3(22),4,6,9(21),10,12,16,18-nonaene-11-sulfonamide trifluoroacetate], the IC50 in experiment [1] is 64 nM; against TYK2 it was 178 nM; in experiment [2], 107 nM; in experiment [3], above 1000 nM; in experiment [4], 23 nM.

Take `Nc1ccc2cc1CCc1cccc(c1)Nc1ncc(Cl)c(n1)N2` [Example B19, 6-Chloro-2,4,8,22-tetraazatetracyclo[14.3.1.1(3,7).1(9,13)]docosa-1(20),3(22),4,6,9(21),10,12,16,18-nonaen-12-amine dihydrochloride]: the IC50 in experiment [1] worked out at 7.5 nM; on TYK2, 2.5 nM; in experiment [2], 1.3 nM; in experiment [3] it was 610 nM; in experiment [4], 0.97 nM.

For `Nc1cc2cc(c1)Nc1nc(ncc1Cl)Nc1cccc(c1)CC2` [Example B21, 6-Chloro-2,4,8,22-tetraazatetracyclo[14.3.1.1(3,7).1(9,13)]docosa-1(20),3(22),4,6,9(21),10,12,16,18-nonaen-11-amine bis(trifluoroacetate)], the IC50 in experiment [1] was 21 nM; against TYK2 it was 32 nM; in experiment [2], 18 nM; in experiment [3], 1500 nM; in experiment [4] it was 6.3 nM.

On to `COC(=O)c1ccc2cc1CCc1cccc(c1)Nc1ncc(Cl)c(n1)N2` [Example B22, Methyl 6-chloro-2,4,8,22-tetraazatetracyclo[14.3.1.1(3,7).1(9,13)]docosa-1(20),3(22),4,6,9(21),10,12,16,18-nonaene-12-carboxylate trifluoroacetate], for which the IC50 in experiment [1] came to 104 nM; at TYK2, 41 nM; in experiment [2], 144 nM; in experiment [3] it was 1440 nM; in experiment [4] it was 11 nM.

Regarding `OCc1ccc2cc1CCc1cccc(c1)Nc1ncc(Cl)c(n1)N2` [Example B23, [6-Chloro-2,4,8,22-tetraazatetracyclo[14.3.1.1(3,7).1(9,13)]docosa-1(20),3(22),4,6,9(21),10,12,16,18-nonaen-12-yl]methanol trifluoroacetate], the IC50 came out at 1.2 nM in experiment [1], 1.8 nM on TYK2, 0.2 nM in experiment [2] and 0.8 nM in experiment [4]. The “ALK % of inhibition at a concentration of 500 nM or 1 mM” value in experiment [3] was determined as 75%.

`OCc1cc2cc(c1)Nc1nc(ncc1Cl)Nc1cccc(c1)CC2` [Example B24, [6-Chloro-2,4,8,22-tetraazatetracyclo[14.3.1.1(3,7).1(9,13)]docosa-1(20),3(22),4,6,9(21),10,12,16,18-nonaen-11-yl]methanol trifluoroacetate]: the IC50 in experiment [1] was 5.8 nM; against TYK2, 18 nM; in experiment [2], 14 nM; in experiment [3], 781 nM; in experiment [4] it was 2.3 nM.

Turning to `O=C(Nc1ccc2cc1CCc1cncc(c1)Nc1ncc(Cl)c(n1)N2)N[C@H]1CCNC1` [Example B25, N-[6-Chloro-2,4,8,18,22-pentaazatetracyclo[14.3.1.1(3,7).1(9,13)]docosa-1(20),3(22),4,6,9(21),10,12,16,18-nonaen-12-yl]-N′-[(3S)-pyrrolidin-3-yl]urea trihydrochloride], the half-inhibitory concentration (IC50) in experiment [1] is 153 nM; at TYK2, 50 nM; in experiment [2] it was 12 nM; in experiment [4], 36 nM. In addition, the “ALK % of inhibition at a concentration of 500 nM or 1 mM” value in experiment [3] worked out at 14%.

In the case of `CC(=O)Nc1ccc2cc1CCc1cccc(c1)Nc1ncc(Cl)c(n1)N2` [Example B26, N-[6-Chloro-2,4,8,22-tetraazatetracyclo[14.3.1.1(3,7).1(9,13)]docosa-1(20), 3(22),4,6,9(21),10,12,16,18-nonaen-12-yl]acetamide trifluoroacetate], the IC50 in experiment [1] amounted to 7.4 nM; against TYK2, 15 nM; in experiment [2] it was 6.5 nM; in experiment [3], 1100 nM; in experiment [4] it was 4.1 nM.
